IC95 and IC50 data for 18 compounds are collected here from US7619086B2 (Merck & Co., Inc., priority 2004, dated 2009).

One experiment deals with HIV. Kind of experiment: Assay for inhibition of HIV replication (acute HIV infection of T-lymphoid cells). Conditions: Human immunodeficiency virus 1. Format: cell-based. The protocol: Assays for the inhibition of acute HIV infection of T-lymphoid cells were conducted in accordance with Vacca, J. P. et al., Proc. Natl. Acad. Sci. USA 1994, 91: 4096.
The target of experiment [1] is T1, HIV integrase (recombinant integrase) (Human immunodeficiency virus type 1 group M subtype B, UniProt P04585).
T1 construct: Assays for the strand transfer activity of integrase were conducted in accordance with WO 02/30930 for recombinant integrase
Kind of experiment: HIV integrase assay: strand transfer catalyzed by recombinant integrase. Particulars: per WO 02/30930, read-out: IC50, inhibition of strand transfer activity of integrase. Format: biochemical. The protocol:
Assays for the strand transfer activity of integrase were conducted in accordance with WO 02/30930 for recombinant integrase.
Further description on conducting the assay using preassembled complexes is found in Wolfe, A. L. et al., J. Virol. 1996, 70: 1424-1432, Hazuda et al., J. Virol. 1997, 71: 7005-7011; Hazuda et al., Drug Design and Discovery 1997, 15: 17-24; and Hazuda et al., Science 2000, 287: 646-650.

Bounds are passed on as bounds.

In the case of `CN1C(=O)C(O)=C2C(=O)N(Cc3ccc(F)cc3)CCC2C1(C)C` (stereo not drawn) [Example 2, 2-(4-Fluorobenzyl)-8-hydroxy-5,5,6-trimethyl-2,3,4,4a,5,6-hexahydro-2,6-naphthyridine-1,7-dione], the IC95 with HIV was no more than 10 µM. The IC50 in experiment [1] was no more than 1 µM.
The compound `CN1C(=O)C(O)=C2C(=O)N(Cc3ccc(F)cc3)CCC2C1C(=O)NC(C)(C)C` (stereo not drawn) [Example 15] yielded a 95% effect concentration (IC95) in the experiment with HIV of no more than 10 µM. In addition, in experiment [1], the IC50 was no more than 1 µM.
As to `CN1C(=O)C(O)=C2C(=O)N(Cc3ccc(F)cc3)CCC2C1c1ncccn1` (single isomer, unassigned) [first eluting enantiomer of Example 17, 5-(Pyrimidin-2-yl)-2-(4-fluorobenzyl)-8-hydroxy-6-methyl-2,3,4,4a,5,6-hexahydro-2,6-naphthyridine-1,7-dione], the IC95 in the experiment with HIV is no more than 10 µM. Moreover, the IC50 in experiment [1] is no more than 1 µM.
In turn, `O=C1C2=C(O)C(=O)N(C3CC3)CC2CCN1Cc1ccc(F)c(Cl)c1` (racemic) [Example 18, 2-(3-Chloro-4-fluorobenzyl)-8-hydroxy-6-cyclopropyl-2,3,4,4a,5,6-hexahydro-2,6-naphthyridine-1,7-dione] yielded an IC95 with HIV of no more than 10 µM. In addition, the IC50 in experiment [1] is no more than 1 µM.
Taken in the same sequence, the figures for `CN(C)C(=O)C1C2CCN(Cc3ccc(F)cc3)C(=O)C2=C(O)C(=O)N1C` (stereo not drawn) [Example 9, 5-(Dimethylaminocarbonyl)-2-(4-fluorobenzyl)-8-hydroxy-6-methyl-2,3,4,4a,5,6-hexahydro-2,6-naphthyridine-1,7-dione] were no more than 10 µM and no more than 1 µM.
For `CN1CC2(c3ccccc3)CCN(Cc3ccc(F)cc3)C(=O)C2=C(O)C1=O` (stereo not drawn) [Example 3, 2-(4-Fluorobenzyl)-8-hydroxy-6-methyl-4-a-phenyl-2,3,4,4a,5,6-hexahydro-2,6-naphthyridine-1,7-dione] the same measures were no more than 10 µM and no more than 1 µM.
Taken in the same sequence, the figures for `CCC1NC(=O)C(O)=C2C(=O)N(Cc3ccc(F)cc3)CCC21` (stereo not drawn) [Example 5] were no more than 10 µM and no more than 1 µM.
With `CN1CC2CCN(Cc3ccc(F)cc3)C(=O)C2=C(O)C1=O` (stereo not drawn) [Example 1, 2-(4-Fluorobenzyl)-8-hydroxy-6-methyl-2,3,4,4a,5,6-hexahydro-2,6-naphthyridine-1,7-dione], the IC95 in the experiment with HIV is no more than 10 µM. Besides, the IC50 in experiment [1] is no more than 1 µM.
On to `CN1C(=O)C(O)=C2C(=O)N(Cc3ccc(F)cc3)CCC2C12CCC2` (stereo not drawn) [Example 13], for which the IC95 with HIV was no more than 10 µM. Moreover, in experiment [1], the IC50 was no more than 1 µM.
Turning to `CN1C(=O)C(O)=C2C(=O)N(Cc3ccc(F)cc3)CCC2C12CCCC2` (stereo not drawn) [Example 11], in the experiment on HIV, the IC95 is no more than 10 µM. Besides, the IC50 in experiment [1] was no more than 1 µM.
The compound `CN1C(=O)C(O)=C2C(=O)N(Cc3ccc(F)c(F)c3)CCC2C1(C)C` (stereo not drawn) [Example 12] had an IC95 in the experiment with HIV of no more than 10 µM. Moreover, in experiment [1], the IC50 is no more than 1 µM.
Taken in the same sequence, the figures for `CN1C(=O)C(O)=C2C(=O)N(Cc3ccc(F)c(Cl)c3)CCC2C1(C)C` (stereo not drawn) [Example 10] were no more than 10 µM and no more than 1 µM.
With `CN1C(=O)C(O)=C2C(=O)N(Cc3ccc(F)cc3)CCC2C1C(=O)OC(C)(C)C` (single isomer, unassigned) [Example 4, 5-(tert-Butyloxycarbonyl)-2-(4-fluorobenzyl)-8-hydroxy-6-methyl-2,3,4,4a,5,6-hexahydro-2,6-naphthyridine-1,7-dione], the IC95 in the experiment on HIV is no more than 10 µM. Further, the half-inhibitory concentration (IC50) in experiment [1] was no more than 1 µM.
Take `CC[C@@H]1[C@H]2CCN(Cc3ccc(F)cc3)C(=O)C2=C(O)C(=O)N1C` (relative stereo) [Example 7, (Trans-4a,5)-5-Ethyl-2-(4-fluorobenzyl)-8-hydroxy-6-methyl-2,3,4,4a,5,6-hexahydro-2,6-naphthyridine-1,7-dione]: the IC95 in the experiment with HIV is no more than 10 µM. Moreover, in experiment [1], the half-inhibitory concentration (IC50) is no more than 1 µM.
In turn, `CN1C(=O)C(O)=C2C(=O)N(Cc3ccc(F)cc3)CCC2C1C(=O)NCc1ccccn1` (stereo not drawn) [Example 16] had a 95% effect concentration (IC95) in the experiment on HIV of no more than 10 µM. Also, in experiment [1], the IC50 was no more than 1 µM.
In the experiment on HIV, `CC1(C)C2CCN(Cc3ccc(F)cc3)C(=O)C2=C(O)C(=O)N1CC1CC1` (stereo not drawn) [Example 8, 6-(Cyclopropylmethyl)-2-(4-fluorobenzyl)-8-hydroxy-5,5-dimethyl-2,3,4,4a,5,6-hexahydro-2,6-naphthyridine-1,7-dione] came in with an IC95 of no more than 10 µM. Moreover, the half-inhibitory concentration (IC50) in experiment [1] is no more than 1 µM.
Regarding `CC[C@@H]1[C@@H]2CCN(Cc3ccc(F)cc3)C(=O)C2=C(O)C(=O)N1C` (relative stereo) [Example 6, (Cis-4a,5)-5-Ethyl-2-(4-fluorobenzyl)-8-hydroxy-6-methyl-2,3,4,4a,5,6-hexahydro-2,6-naphthyridine-1,7-dione], the IC95 in the experiment with HIV is no more than 10 µM. The IC50 in experiment [1] was no more than 1 µM.
For `CC(C)CNC(=O)C1C2CCN(Cc3ccc(F)cc3)C(=O)C2=C(O)C(=O)N1C` (stereo not drawn) [Example 14] the same measures were no more than 10 µM and no more than 1 µM.

What is called IC95 is the concentration at which the effect reaches the 95% level. The low end stands for greater potency, the high end for weaker potency. Broadly, the IC50 is the concentration at which inhibition is half-maximal.
